According to PubChem BioAssay (NCI):
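These data come from cells grown in 96-well plates and exposed to compound for 48 hours at five concentrations. At the GI50, growth is halved. TGI: concentration producing complete growth inhibition.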

What was measured:
Experiment in all cases: NCI tumour cell line growth inhibition, 48 h
SW-620 colon = test system: SW-620 colon
KM12 colon = test system: KM12 colon
SK-MEL-28 melanoma = test system: SK-MEL-28 melanoma
U251 CNS = test system: U251 CNS
PC-3 prostate = test system: PC-3 prostate
TK-10 renal = test system: TK-10 renal
SNB-19 CNS = test system: SNB-19 CNS
MDA-MB-435 = test system: MDA-MB-435
MDA-MB-231 breast = test system: MDA-MB-231 breast
CCRF-CEM leukemia = test system: CCRF-CEM leukemia

| Structure (SMILES) | TGI (SW-620 colon) [µM] | TGI (KM12 colon) [µM] | TGI (SK-MEL-28 melanoma) [µM] | TGI (U251 CNS) [µM] | TGI (PC-3 prostate) [µM] | TGI (TK-10 renal) [µM] | TGI (SNB-19 CNS) [µM] | TGI (MDA-MB-435) [µM] | TGI (MDA-MB-231 breast) [µM] | TGI (CCRF-CEM leukemia) [µM] | GI50 (SW-620 colon) [µM] | GI50 (KM12 colon) [µM] | GI50 (SK-MEL-28 melanoma) [µM] | GI50 (U251 CNS) [µM] | GI50 (PC-3 prostate) [µM] | GI50 (TK-10 renal) [µM] | GI50 (SNB-19 CNS) [µM] | GI50 (MDA-MB-435) [µM] | GI50 (MDA-MB-231 breast) [µM] | GI50 (CCRF-CEM leukemia) [µM] |
| --- | --- | --- | --- | --- | --- | --- | --- | --- | --- | --- | --- | --- | --- | --- | --- | --- | --- | --- | --- | --- |
| O=C(c1cccs1)N1CCCN(C(=O)c2cccs2)C1=S | > 100 | > 100 | > 100 | > 100 | > 100 | > 100 | > 100 | > 100 | > 100 | > 100 | – | – | – | – | – | – | – | – | – | – |
| O=C(O)c1c2c(cc3c1CC1(Cc4cc5c(cc4C1=O)CCC5)C3)CCC2 (stereo unspecified) | > 100 | > 100 | 82.5 | > 100 | > 100 | > 100 | > 100 | > 100 | > 100 | > 100 | – | – | – | – | – | – | – | – | – | – |
| COC(=O)c1ccccc1/C=C1\Cc2ccc3c(c2C1=O)CCCC3 | > 100 | > 100 | > 100 | > 100 | > 100 | > 100 | > 100 | > 100 | > 100 | > 100 | – | – | – | – | – | – | – | – | – | – |
| Cc1cc(S(=O)(=O)Nc2nncn2-c2ccc(Cl)cc2)c(S)cc1Cl | > 10 | > 10 | > 10 | > 10 | > 10 | > 10 | > 10 | > 10 | > 10 | > 10 | – | – | – | – | – | – | – | – | – | – |
| O=[N+]([O-])c1cc2ccc(N(CCO)CCO)nc2nc1N(CCO)CCO | > 100 | > 100 | > 100 | > 100 | > 100 | > 100 | > 100 | > 100 | > 100 | > 100 | – | – | – | – | – | – | – | – | – | – |
| Cc1cc(OCCOCCC(F)(F)P(=O)(O)O)ccc1CCc1cnc2c(N)nc3cc(CCC(=O)O)ccc3c2c1 | > 100 | > 100 | > 100 | > 100 | > 100 | > 100 | > 100 | > 100 | > 100 | > 100 | > 100 | > 100 | > 100 | > 100 | > 100 | > 100 | > 100 | > 100 | > 100 | > 100 |
| CCOC(=O)/C=C(\C(=O)OCC)n1cc(Cl)c(=O)n(CC(=O)OCC)c1=O | 4.54 | 34.9 | 36.5 | 29.6 | 27.8 | 3.6 | 39 | 35.5 | 30.3 | 36.1 | – | – | – | – | – | – | – | – | – | 16.5 |
| N/C(=N\Nc1ccc(Cl)cc1)c1cnccn1 | > 100 | > 100 | > 100 | > 100 | > 100 | > 100 | > 100 | > 100 | > 100 | > 100 | – | – | – | – | – | – | – | – | – | – |
| CCOC(=O)C(=CNC(=S)N=Nc1c(O)[nH]c2ccccc12)C(=O)OCC | > 100 | > 100 | > 100 | > 100 | > 100 | > 100 | > 100 | > 100 | > 100 | > 100 | – | – | – | – | – | – | – | – | – | – |
| CCOC(=O)CCN1C(=O)C(=O)N(c2ccc(OC)cc2)C1=S | > 100 | > 100 | > 100 | > 100 | > 100 | > 100 | > 100 | > 100 | > 100 | > 100 | – | – | – | – | – | – | – | – | – | – |
| CCN(CC)c1ccc(/C=C2\CCc3ccc([N+](=O)[O-])cc3C2=O)cc1 | > 100 | > 100 | > 100 | > 100 | > 100 | > 100 | > 30.1 | 0.744 | > 100 | > 100 | – | – | – | – | – | – | – | – | – | – |
| CCOC1NC(=O)Oc2cc3ccccc3cc21 (stereo unspecified) | > 100 | > 100 | > 100 | > 100 | > 100 | > 100 | > 100 | > 100 | > 100 | > 100 | – | – | – | – | – | – | – | – | – | – |
| C=CCOC(=O)N1c2ccc(O)cc2[C@@]23O[C@@]24[C@@H]1C#C/C=C\C#C[C@]3(O)C(OC)(OC)C[C@@H]4C | > 100 | 69.7 | > 100 | > 100 | 77.6 | > 100 | > 100 | 53.7 | 52.8 | 76.8 | – | – | – | – | – | – | – | – | – | – |
| CC1(C)C2CCC1C(=O)[C@@]1(C=CC(=O)CC1)C2 (stereo partly specified) | > 100 | > 100 | > 100 | > 100 | > 100 | > 100 | > 100 | > 100 | > 100 | > 100 | – | – | – | – | – | – | – | – | – | – |
| Cc1c(C)c(C)c(-n2c(=O)n(C)c(=O)n2-c2cc(C(C)(C)C)cc(C(C)(C)C)c2O)c(C)c1C | 28.4 | > 45.3 | 28 | 19.6 | 12 | 24.5 | 20.9 | 27.2 | 17 | 30.8 | – | – | – | – | – | – | – | – | – | – |
| COC(=O)CNC(=O)CCC(C)[C@H]1CCC2C3C(C[C@H](OC(C)=O)[C@@]21C)[C@@]1(C)CCC2(C[C@H]1C[C@H]3OC(C)=O)OOC1(CC[C@]3(C)C4C[C@H](OC(C)=O)[C@@]5(C)C(CC[C@@H]5C(C)CCC(=O)NCC(=O)OC)C4[C@H](OC(C)=O)C[C@@H]3C1)OO2 (stereo partly specified) | > 50 | 41.2 | 9.52 | 14 | 8.69 | 2.55 | > 50 | > 50 | 5.96 | 1.57 | – | – | – | – | – | – | – | – | – | – |
| NC(=O)CC(N)C(=O)NC(Cc1ccccc1)C(=O)NC(Cc1ccccc1)NC(=O)C(Cc1c[nH]c2ccccc12)C(=O)O (stereo unspecified) | > 100 | > 100 | > 100 | > 100 | > 100 | > 100 | > 100 | > 100 | > 100 | > 100 | – | – | – | – | – | – | – | – | – | – |
| Nn1c(=O)[nH]c2ncn(Cc3ccccc3)c2c1=O | > 100 | > 100 | > 100 | > 100 | > 100 | > 100 | > 100 | > 100 | > 100 | > 100 | – | – | – | – | – | – | – | – | – | – |
| O=C(C/C(=N/O)C(F)(F)F)c1cccs1 | > 100 | > 100 | > 100 | > 100 | > 100 | > 100 | > 100 | > 100 | > 100 | > 100 | – | – | – | – | – | – | – | – | – | – |
| COc1c(Br)cc2ccccc2c1-c1c(OC)c(Br)cc2ccccc12 | > 100 | > 100 | > 100 | > 100 | > 100 | > 100 | > 100 | > 100 | > 100 | > 100 | – | – | – | – | – | – | – | – | – | – |
| O=c1c2cnccc2cc2c3ccccc3ccn12 | > 100 | > 100 | > 100 | > 100 | > 100 | > 100 | > 100 | > 100 | > 100 | > 100 | – | – | – | – | – | – | – | – | – | – |
| CCOC(=O)[C@@]1(C)CC(O)C(=O)N1C (stereo partly specified) | > 100 | > 100 | > 100 | > 100 | > 100 | > 100 | > 100 | > 100 | > 100 | > 100 | – | – | – | – | – | – | – | – | – | – |
| Cc1cc(Nc2ccc(NS(C)(=O)=O)cc2)c2c(ccc3nccc32)[nH]1 | > 100 | 36.2 | 33.4 | 29 | 39.7 | > 100 | 48.8 | 30.5 | 33.4 | > 100 | – | – | – | – | – | – | – | – | – | – |
| CC(C)(C)NC(=O)/C(=C\Sc1ccccc1)c1ccccc1 | > 100 | > 100 | > 100 | > 100 | > 100 | > 100 | > 100 | > 100 | > 100 | > 100 | – | – | – | – | – | – | – | – | – | – |
| CCCCSC1=N/C(=C\c2ccc(N(C)C)cc2)C(=O)N1 | > 100 | > 100 | > 100 | 48.2 | 19.3 | > 100 | > 100 | > 100 | 75.8 | > 100 | – | – | – | – | – | – | – | – | – | – |
| c1ccc(Nc2nn3c(CCCCCCCCc4nnc5sc(Nc6ccccc6)nn45)nnc3s2)cc1 | > 100 | > 100 | > 100 | > 100 | > 100 | > 100 | > 100 | 84 | > 100 | 63.9 | – | – | – | – | – | – | – | – | – | – |
| COc1ccc2c(c1)NC1(CCN(CCCC(=O)c3ccc(F)cc3)CC1)N=N2 | 57.9 | 41 | 37 | 48.6 | > 100 | 62.2 | > 100 | 31.4 | 45.7 | 58.5 | – | – | – | – | – | – | – | – | – | – |
| N#Cc1cc(Sc2ccc(N)c(C#N)c2)ccc1N | > 100 | 24.9 | > 100 | > 100 | > 100 | > 100 | > 100 | 12.6 | > 100 | 41.3 | – | – | – | – | – | – | – | – | – | – |
| CN(C)CCOc1ccc(-c2c(Oc3ccccc3)c(=O)oc3ccccc23)cc1 | 23.8 | 77.8 | 25.5 | 17.3 | 23.1 | 26.4 | 20.8 | 21.2 | 18.8 | 4.94 | – | – | – | – | – | – | – | – | – | – |
| O[C@@H]1CCC[C@@H]2NC[C@@H](c3ccc4c(c3)OCO4)[C@H]12 | > 100 | > 100 | > 100 | > 100 | > 100 | > 100 | > 100 | > 100 | > 100 | > 100 | – | – | – | – | – | – | – | – | – | – |
